These are literature values, as cited in patent US4446129A, “Method for treatment of arthrosis deformans with elastase” (Eisai Co., Ltd., priority 1982, dated 1984).

Each structure is given as a SMILES string.

The data set deals with elastase. The settings on record: cited from earlier work.
In the case of `N.N.O=S(=O)(O)O` [(NH4)2 SO4], the “inhibition of elastase activity” value is recorded as “inhibited”.

For `O=S(=O)([O-])[O-].[Cu+2]` [CuSO4], the “inhibition of elastase activity” value is on record as “inhibited”.

With `[Cl-].[K+]` [KCl], the “inhibition of elastase activity” value was “inhibited”.

In the case of `[Cl-].[Na+]` [NaCl], the “inhibition of elastase activity” value is listed as “inhibited”.
